{
  "source": "patent US20250154140A1",
  "about": "(Sunnybrook Research Institute, priority 2022, published 2025)",
  "key": {"BAX": {"molecular_target": "BAX (Homo sapiens, UniProt Q07812)", "sequence (Q07812 whole entry)": "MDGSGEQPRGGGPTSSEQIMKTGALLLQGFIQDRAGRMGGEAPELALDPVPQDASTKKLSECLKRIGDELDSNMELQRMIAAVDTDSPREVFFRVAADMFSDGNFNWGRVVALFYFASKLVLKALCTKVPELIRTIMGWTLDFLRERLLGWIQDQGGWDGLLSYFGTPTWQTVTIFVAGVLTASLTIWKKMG", "test": "Liposome membrane permeabilization / dye release assay (cBID activated BAX)", "type": "biochemical", "set-up": "made in house; host or cells: Escherichia coli BL21-AI", "conditions": "20 nM cBID and 100 nM BAX", "experimental": "The preparation of liposomes and dye-release assays were as previously described (Kale et al., 2014). The composition of liposomes, in molar %, to make a 1 mg/mL lipid film are as follows: 48% phosphatidylcholine, 28% phosphatidylethanolamine, 10% phosphatidylinositol, 10% dioleoyl phosphatidylserine, and 4% tetraoleoyl cardiolipin. Each lipid (dissolved in chloroform) was mixed in a glass test tube. Using a steady stream of nitrogen pointed inside the test tube, the tube is rotated to create a film of lipids on the glass. The tube is filled with nitrogen and covered with parafilm. The dried lipid film is then stored at −20° C. until needed. […]\nThe choice of ANTS/DPX or Terbium:DPA liposomes for dye release assays was dictated by the properties of those compounds being assayed for BAX inhibitory activity, that affected the fluorescence of ANTS or Terbium.\nFor ANTS/DPX dye release assays: ANTS (fluorophore; excitation 355 nm, emission 520 nm) and DPX (collisional quencher) are encapsulated in reconstituted liposomes. When the membrane is permeabilized, ANTS and DPX diffuse to the outside of the liposomes, decreasing the effective concentration DPX and therefore quenching by […] is decreased and ANTS fluorescence increases. […] The plate was then read a third time to assess the fluorescence of ANTS upon full dissociation of liposomes in each well (F100). […]"}, "[1]": {"system": "Baby Mouse Kidney (BMK) cells", "test": "Actinomycin D / spontaneous cell death assay in BMK cells", "type": "cell-based", "conditions": "for tolerability by the cells: BMKwt cells; for effect on spontaneous cell death / effect on actinomycin D induced cell death: BMKwt; for effect on spontaneous cell death: 0 mM actinomycin D; for effect on actinomycin D induced cell death: 3.125, 6.25, 12.5 nM actinomycin D", "experimental": "Baby Mouse Kidney (BMK) cells were from (Mathew et al., 2008). BMK double knockout, SMAC-mCherry, and BAX^−/− cell lines were generated in house as described (Niu et al., 2017). BMK lines were grown in DMEM supplemented with 10% Fetal Bovine Serum and 1×MEM non-essential amino acids in a humidified incubator at 37° C. and 5% CO2.\nFor cell death assays with actinomycin D, 3000 WT or DKO BMK cells were cultured in a 384 well plate and incubated overnight. The next morning, cells were treated with actinomycin D for 2 hours before the addition of BAX inhibitor. Actinomycin D and BAX inhibitor (where relevant) were then incubated for 24 hours before staining with Hoechst, AnnexinV-Alexa488, and TMRE for 30 minutes. Cells were imaged by confocal microscopy (Opera Phenix—PerkinElmer) and subsequently analyzed with Harmony (PerkinElmer) software. Cell death was scored by three criteria: the loss of TMRE signal, the appearance of AnnexinV-Alexa488 signal, and nuclear shrinkage visualized by Hoechst."}, "BAK": {"molecular_target": "T1, BAK (Mus musculus, UniProt O08734)", "T1 construct": "endogenous in cells; host or cells: heavy membranes (mitochondria) of BAX-/- baby mouse kidney cells expressing Smac-mCherry", "T1 sequence (O08734 2-209 limits assumed)": "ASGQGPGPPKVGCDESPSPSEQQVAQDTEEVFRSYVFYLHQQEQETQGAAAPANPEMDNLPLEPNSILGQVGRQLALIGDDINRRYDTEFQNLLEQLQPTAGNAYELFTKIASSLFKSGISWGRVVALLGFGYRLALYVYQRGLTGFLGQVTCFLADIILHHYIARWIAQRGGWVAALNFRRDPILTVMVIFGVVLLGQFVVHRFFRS", "test": "Permeabilization of isolated mitochondria, Smac-mCherry release (BIM activated BAK)", "type": "biochemical", "conditions": "concentrations up to 60 uM"}},
  "data": [
    {"smiles": "COc1cc2ccnc(Nc3ccc(F)c(Cl)c3)c2cc1NC(=O)CCCN1CCCCC1", "note": "[Compound I-1, N-(1-((3-chloro-4-fluorophenyl)amino)-6-methoxyisoquinolin-7-yl)-4-(piperidin-1-yl)butanamide]", "values": [
      {"measurement": "BAX inhibitory activity, cBID activated BAX mediated liposome permeabilization", "setting": "BAX", "result": "retained BAX inhibitory activity equivalent to comparative compound dacomitinib"},
      {"measurement": "inhibition of actinomycin D mediated cell death in cells expressing either BAX or BAK", "setting": "[1]; 1.25 or 2.5 uM compound, actinomycin D 25 nM (wild-type), 100 nM (knock-out)", "result": "most effective inhibitor"},
      {"measurement": "tolerability by the cells", "setting": "[1]", "result": "well-tolerated"},
      {"measurement": "effect on spontaneous cell death", "setting": "[1]", "result": "reduced the amount of spontaneous cell death"},
      {"measurement": "effect on actinomycin D induced cell death", "setting": "[1]", "result": "reduced cell death"},
      {"measurement": "inhibition of BAK mediated permeabilization of mitochondria", "setting": "BAK", "result": "equally effective inhibitors"}
    ]},
    {"smiles": "COc1cc2ncnc(Nc3ccc(F)c(Cl)c3)c2cc1NC(=O)/C=C/CN1CCCCC1", "note": "[Dacomitinib, reference compound]", "values": [
      {"measurement": "BAX inhibitory activity, cBID activated BAX mediated liposome permeabilization", "setting": "BAX", "result": "identified in a screen for compounds that inhibit"},
      {"measurement": "spontaneous cell death in culture", "setting": "[1]; BMK-wt, 0 nM actinomycin D, from ~30% without compound", "result": "< 10", "unit": "%"},
      {"measurement": "tolerability by the cells", "setting": "[1]", "result": "well-tolerated"},
      {"measurement": "effect on spontaneous cell death", "setting": "[1]", "result": "reduced the amount of spontaneous cell death"},
      {"measurement": "effect on actinomycin D induced cell death", "setting": "[1]", "result": "reduced cell death"},
      {"measurement": "inhibition of BAK mediated permeabilization of mitochondria", "setting": "BAK", "result": "equally effective inhibitors"}
    ]}
  ]
}
